Test results published in patent US7732478B2, “Methods for facilitating metabolic control” (The Trustees of Columbia University in The City of New York, priority 2005, dated 2010).

Legend:
IL-1β in GCF [1] = test: Level of IL-1β in gingival crevicular fluid (sandwich ELISA) after ketorolac oral rinse; format: in vivo, human; details: Ketorolac treatment, Example 11
Text: The clinical evaluation was preceded by collection of GCF, as previously described (Lamster et al., A comparison of 4 methods of data presentation for lysosomal enzyme activity in gingival crevicular fluid. J. Clin. Periodontol., 15:347-52, 1988; Lamster et al., Correlation analysis for clinical and gingival crevicular fluid parameters at anatomically related gingival sites. J. Clin. Periodontol., 18:272-77, 1991), from the mesiolingual and mesiobuccal surfaces of the first molar tooth in each quadrant. Where the first molar was absent, the second molar was sampled. If both the first and second molar were missing, the second premolar was sampled. If there were no posterior teeth in a quadrant, no sample was taken from that quadrant.
Briefly, teeth were air-dried and isolated with cotton rolls, supragingival plaque was gently removed, and GCF was sampled with precut methylcellulose filter paper strips for 30 sec. Strips were measured for fluid volume with a calibrated Periotron 6000 (Interstate Drug Exchange, Amityville, N.Y.), then removed to separate microcentrifuge tubes containing 50 μl of phosphate-buffered saline (Tween 20). […] Following elution, each GCF sample was analyzed separately.
GCF samples were analyzed for IL-1β using a commercially-available enzyme-linked immunosorbant assay, Multikine Kit (Cistron Biotechnology, Pine Brook, N.J.). […]

circulating TNF = test: Circulating TNF level (blood TNF alpha immunoassay) after ketorolac oral rinse; format: in vivo, human; details: oral rinse containing 0.1% Ketorolac twice daily for 6 months; type 2 diabetes and chronic periodontitis subjects
Protocol: Subjects are selected and divided into different groups as described in Examples 1 and 2. An oral rinse containing 0.1% Ketorolac was administered twice daily for 6 months to reduce the level of IL-1β in GCF in the subjects (see, Cavanaugh et al., Coordinate production of PGE2 and IL-1 beta in the gingival crevicular fluid of adults with periodontitis: its relationship to alveolar bone loss and disruption by twice daily treatment with ketorolac tromethamine oral rinse. J. Periodontal Res. 33:75-82, 1998). GCF samples are collected following the procedures of example 3 and the level of IL-1β in GCF is determined as described in example 5. Circulating TNF level is determined by measuring blood TNF level using the TNF alpha immunoassay kit (Assay Designs Inc., Ann Arbor, Mich.) following the manufacturer's instructions.

HbA1c = HbA1c levels as indicator of metabolic control; format: in vivo, human; details: Ketorolac treatment, Example 11
Protocol: (§1) Glycated hemoglobin (HbA1c) levels were measured from freshly drawn anticoagulated whole blood using an automated affinity chromatography system (BioRad Micromat II, Hercules, Calif.). Serum glucose was determined by the glucose oxidase method (Roche Diagnostics, Basel, CH). […] The study is performed as described in example 8. HbA1c levels and serum glucose levels, which are used as indicators of metabolic control, are measured as described in example 6.

serum glucose = test: Serum glucose levels as indicator of metabolic control; format: in vivo, human; details: Ketorolac treatment, Example 11
Protocol: as §1

IL-1β in GCF [2] = details: used as an oral rinse; cited from earlier work
[3] = system: circulating levels of TNF-α, and IL-6; details: infusion of glutathione; healthy and impaired glucose tolerance individuals; cited from earlier work

SMILES	levels of IL-1β in GCF (IL-1β in GCF [1])	level of serum TNF (circulating TNF)	HbA1c levels (HbA1c)	serum glucose levels (serum glucose)	GCF IL-1β in the oral cavity (IL-1β in GCF [2])	circulating cytokines following a glucose bolus administration [3]
O=C(c1ccccc1)c1ccc2n1CCC2C(=O)O (stereo not drawn) [Ketorolac]	reducing the levels of IL-1β in GCF	significant reduction	decline of HbA1c levels	decline	reduce GCF IL-1β	–
N[C@@H](CCC(=O)N[C@@H](CS)C(=O)NCC(=O)O)C(=O)O [glutathione]	–	–	–	–	–	no increase of cytokines
